The numbers were not newly measured in US6649645B1 (Pharmacia Corporation, priority 1998, dated 2003), which cites them from elsewhere.

Series [1] has as its system fibroblast growth factor-induced corneal angiogenesis. The settings on record: rats; Masferrer et al. 1999.
The conditions of series [2]: Cynomolgus monkeys, orally for six weeks.
[3] abbreviates: mice, Milas et al., Cancer Res. 1990.

On to `COc1ccc2c(c1)c(CC(=O)O)c(C)n2C(=O)c1ccc(Cl)cc1` [indomethacin], for which, in the series on tumor (setting [3]), the “tumor cure rate after radiotherapy” value is listed as “increases the tumor cure rate” and the “tumor growth delay after radiotherapy” value is given as “prolongs tumor growth delay”. The “enhancement factor (tumor curability)” value in the series with tumor (printed as 'radiation alone') was 1.26. Moreover, in the series with tumor (radiation-indomethacin), the “enhancement factor (tumor growth delay)” value is given as 1.4.

On to `Cc1ccc(-c2cc(C(F)(F)F)nn2-c2ccc(S(N)(=O)=O)cc2)cc1` [Celecoxib, Benzenesulfonamide, 4-(5-(4-methylphenyl)-3-(trifluoromethyl)-1H-pyrazol-1-yl)-], for which the “inhibition of fibroblast growth factor-induced corneal angiogenesis” value in series [1] is listed as “potent inhibition”.

`CN1C(C(=O)Nc2ccccn2)=C(O)c2sc(Cl)cc2S1(=O)=O` [lornoxicam]: the Toxicity in series [2] is 1 to 2 mg/kg/day.
